From patent US20240189615A1, “METHOD AND SYSTEM FOR PRODUCING APOPTOTIC MONONUCLEAR CELLS” (MACO PHARMA, priority 2020, published 2024)

Experiments:
[1] = system: JURKAT cells; experiment: Apoptosis test (annexin-V FITC / propidium iodide flow cytometry), delta-apoptosis; assay type: cell-based, human
Experimental: To obtain the desired quantity of JURKAT cells, they were cultured in an RPMI 1640 medium supplemented with foetal calf serum (10% v/v), 1% L-glutamine (Lonza) and 1% penicillin-streptomycin (Lonza). Cells were grown in culture flasks placed in an incubator at 37° C. and 5% CO2. The JURKAT doubling time was approximately 27 hours.
The cells were suspended in a solution of PBS (phosphate buffer saline) or in a 2% haematocrit solution comprising 1/14 of the anticoagulant ACD-A, a 50/50 v/v mixture of NaCl and plasma. The final volume was such that the thickness of the cell suspension in the container was around 3 mm.
In the case of UVA irradiation, the cell solution also contained 200 ng/ ml or 333° ng/ml of 8-MOP.
At the end of the irradiation step, the cell solutions with a haematocrit level of 2% are washed in order to recover as many JURKAT cells as possible for culture with low contamination by red blood cells. To do this, the components were separated by density gradient using a Ficoll solution (GE Healthcare).
After JURKAT isolation, the cells were washed three times to remove the Ficoll solution. The first two washes were performed in a PBS solution with 2 mM EDTA (Thermo Fisher), and the third was performed in a PBS solution. The cells were then re-suspended in supplemented RPMI medium and counted using Vi-cell and ABX in order to estimate the number of JURKAT that had been isolated and to assess the quantity of residual red blood cells.
(§1) To monitor the parameters of interest (apoptosis and inhibition of JURKAT proliferation), the cells were cultured using cell counting. To do this, 5.10^6 treated cells and 5.10^6 untreated cells were seeded in 10 ml of culture medium.
Apoptosis was studied by flow cytometry, using double labelling of cells with annexin-V coupled to a fluorophore FITC and propidium iodide (PI).
Delta-apoptosis was determined by the following formula:
Δapoptosis=(% apoptosis of treated cells−% apoptosis of untreated cells) [Math. 1]

[2] = system: JURKAT cells; experiment: Inhibition of cell proliferation (Vi-cell counting); assay type: cell-based, human
Experimental: The rate of inhibition of cell proliferation is determined by dividing the difference between the proliferation rate of the unirradiated control cells and the proliferation rate of the irradiated cells by the proliferation rate of the unirradiated control cells, the rate of cell proliferation being determined by dividing the total number of final cells by the total number of starting cells. The rate of inhibition of proliferation was determined 3 days after irradiation and after the cells had been cultured.
as §1
The initial JURKAT population was 5.10^6 cells per culture flask. The number of cells per culture flask was then counted by Vi-cell.
To do this, the culture medium with the cells was centrifuged at 1500 rpm for 5 minutes and the pellet was resuspended in supplemented RPMI culture medium. Depending on the cell density, a 1/10 dilution in PBS could be performed.
The percentage inhibition of cell proliferation on day n (Dn) was determined by the following formula:
% PI(Dn)=100−% P(Dn) [Math. 2]
in which % P(Dn) is the cell proliferation rate at n days, determined by the following formula: […]

[3] = JURKAT cells 330.10^6 in 300 ml, 2% haematocrit plasma/saline, 333 ng/ml 8-MOP, bag, Macogenic G2 (Maco Pharma ECP system)

COc1c2occc2cc2ccc(=O)oc12 [8-MOP, 8-methoxypsoralen]
UVA dose from which acceptance criterion in terms of delta-apoptosis was achieved [1, 3]: ≥ 2 J/cm^2 | UVA dose meeting the acceptance criterion in terms of delta-apoptosis ([1]; JURKAT cells in PBS, 200 ng/ml 8-MOP, Petri dish, BS02 irradiator, criterion delta-apoptosis 30-40% one day, 50-60% two days after irradiation): 0.13 J/cm^2 | rate of cell necrosis ([1]; JURKAT cells in PBS, 200 ng/ml 8-MOP, all doses of UVA radiation tested (0.03-0.4 J/cm^2)): below 1% | equivalent UVA dose (sigmoidal model of delta-apoptosis), BS02 irradiator ([1]; JURKAT cells in plasma, 333 ng/ml 8-MOP, BS02 irradiator in UVA): 4 J/cm^2 | equivalent UVA dose (sigmoidal model of delta-apoptosis), Macogenic G2 ([1]; JURKAT cells in plasma, 333 ng/ml 8-MOP, delivered with Macogenic G2): 2.1 J/cm^2 | UVA dose at which acceptance criterion for delta-apoptosis was reached ([1]; JURKAT cells in plasma/saline 50/50, 2% haematocrit, 333 ng/ml 8-MOP, Petri dish, BS02 irradiator): 4 J/cm^2 | UVA dose from which acceptance criterion in terms of proliferation inhibition was achieved [2, 3]: ≥ 2 J/cm^2 | UVA dose meeting the acceptance criterion in terms of inhibition of proliferation ([2]; JURKAT cells in PBS, 200 ng/ml 8-MOP, Petri dish, BS02 irradiator, criterion inhibition >70% 3 days after irradiation): 0.13 J/cm^2 | UVA dose at which acceptance criterion for rate of proliferation inhibition was reached ([2]; JURKAT cells in plasma/saline 50/50, 2% haematocrit, 333 ng/ml 8-MOP, Petri dish, BS02 irradiator, D+3): 3 J/cm^2
